Data on eight compounds can be found in ChEMBL document CHEMBL2073750, “Differential interaction of 3-hydroxy-3-methylglutaryl-coa reductase inhibitors with ABCB1, ABCC2, and OATP1B1” (Drug Metab Dispos, 2005).

Assay type in all cases: functional, cell-based
For series [1], the target named is ATP-binding cassette sub-family C member 2 (Homo sapiens, UniProt Q92887). Kind of series: TP_TRANSPORTER: inhibition of calcein-AM efflux in MRP2-expressing MDCK cells.
Series [2] addresses ATP-dependent translocase ABCB1 (Homo sapiens, UniProt P08183). Kind of series: TP_TRANSPORTER: inhibition of calcein-AM efflux in MDR1-expressing MDCK cells.
Series [3] has as its target T1, Solute carrier organic anion transporter family member 1B1 (Homo sapiens, UniProt Q9Y6L6).
T1 sequence (Q9Y6L6 whole entry): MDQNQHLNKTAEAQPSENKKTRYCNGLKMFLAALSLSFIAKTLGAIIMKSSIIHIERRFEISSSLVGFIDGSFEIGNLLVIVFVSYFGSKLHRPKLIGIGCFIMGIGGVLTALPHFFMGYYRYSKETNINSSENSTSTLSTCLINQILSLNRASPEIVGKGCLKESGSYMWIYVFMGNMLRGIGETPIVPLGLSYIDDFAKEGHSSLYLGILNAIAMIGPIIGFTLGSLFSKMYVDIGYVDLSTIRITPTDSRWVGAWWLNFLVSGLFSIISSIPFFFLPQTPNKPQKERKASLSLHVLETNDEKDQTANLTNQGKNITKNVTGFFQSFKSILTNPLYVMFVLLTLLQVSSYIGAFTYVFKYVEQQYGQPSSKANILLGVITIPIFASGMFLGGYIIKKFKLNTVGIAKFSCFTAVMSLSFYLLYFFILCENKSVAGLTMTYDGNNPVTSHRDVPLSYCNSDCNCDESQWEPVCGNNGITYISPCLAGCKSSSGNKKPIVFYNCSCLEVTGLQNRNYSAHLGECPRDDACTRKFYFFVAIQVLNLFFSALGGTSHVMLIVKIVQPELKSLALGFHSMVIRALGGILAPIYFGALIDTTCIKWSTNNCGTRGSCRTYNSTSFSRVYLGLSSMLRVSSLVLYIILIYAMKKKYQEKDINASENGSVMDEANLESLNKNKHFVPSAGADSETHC
Kind of series: TP_TRANSPORTER: inhibition of estradiol-17beta-glucuronide uptake(estradiol-17beta-glucuronide:0.02uM) in OATP1B1-expressing HEK293 cells.

ATP-dependent translocase ABCB1, sequence (P08183 whole entry): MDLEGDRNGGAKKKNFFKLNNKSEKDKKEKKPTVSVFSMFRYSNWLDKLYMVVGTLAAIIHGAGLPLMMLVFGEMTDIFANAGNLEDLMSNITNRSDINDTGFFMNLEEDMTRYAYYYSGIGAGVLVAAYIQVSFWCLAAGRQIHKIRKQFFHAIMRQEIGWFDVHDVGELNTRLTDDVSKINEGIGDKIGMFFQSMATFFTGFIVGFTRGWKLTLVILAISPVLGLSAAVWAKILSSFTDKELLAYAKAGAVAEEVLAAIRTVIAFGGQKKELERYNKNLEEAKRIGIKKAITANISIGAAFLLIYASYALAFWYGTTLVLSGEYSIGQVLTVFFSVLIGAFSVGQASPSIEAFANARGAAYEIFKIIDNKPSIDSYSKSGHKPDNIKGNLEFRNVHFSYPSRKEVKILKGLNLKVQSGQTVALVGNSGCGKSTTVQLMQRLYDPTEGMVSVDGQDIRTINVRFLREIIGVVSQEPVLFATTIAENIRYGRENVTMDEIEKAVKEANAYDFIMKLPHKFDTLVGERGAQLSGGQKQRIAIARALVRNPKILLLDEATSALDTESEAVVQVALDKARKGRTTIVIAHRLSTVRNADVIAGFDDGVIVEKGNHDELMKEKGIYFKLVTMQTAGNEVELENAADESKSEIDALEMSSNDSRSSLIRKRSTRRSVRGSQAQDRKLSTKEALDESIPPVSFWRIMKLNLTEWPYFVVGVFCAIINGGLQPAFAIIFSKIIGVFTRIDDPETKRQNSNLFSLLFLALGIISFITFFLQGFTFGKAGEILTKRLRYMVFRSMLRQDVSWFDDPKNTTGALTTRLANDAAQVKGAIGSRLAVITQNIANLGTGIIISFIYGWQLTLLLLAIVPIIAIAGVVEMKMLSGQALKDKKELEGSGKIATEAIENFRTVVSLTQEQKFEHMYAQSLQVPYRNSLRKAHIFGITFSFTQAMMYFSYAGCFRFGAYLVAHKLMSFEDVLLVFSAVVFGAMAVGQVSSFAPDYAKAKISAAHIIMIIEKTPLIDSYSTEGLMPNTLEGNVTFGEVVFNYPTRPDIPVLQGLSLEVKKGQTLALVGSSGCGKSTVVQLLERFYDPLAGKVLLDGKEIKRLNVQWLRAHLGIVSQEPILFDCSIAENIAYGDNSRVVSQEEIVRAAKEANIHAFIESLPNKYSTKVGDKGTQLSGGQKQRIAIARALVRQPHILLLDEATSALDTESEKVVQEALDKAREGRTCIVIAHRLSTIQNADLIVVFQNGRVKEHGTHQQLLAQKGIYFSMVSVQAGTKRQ
ATP-binding cassette sub-family C member 2, sequence (Q92887 whole entry): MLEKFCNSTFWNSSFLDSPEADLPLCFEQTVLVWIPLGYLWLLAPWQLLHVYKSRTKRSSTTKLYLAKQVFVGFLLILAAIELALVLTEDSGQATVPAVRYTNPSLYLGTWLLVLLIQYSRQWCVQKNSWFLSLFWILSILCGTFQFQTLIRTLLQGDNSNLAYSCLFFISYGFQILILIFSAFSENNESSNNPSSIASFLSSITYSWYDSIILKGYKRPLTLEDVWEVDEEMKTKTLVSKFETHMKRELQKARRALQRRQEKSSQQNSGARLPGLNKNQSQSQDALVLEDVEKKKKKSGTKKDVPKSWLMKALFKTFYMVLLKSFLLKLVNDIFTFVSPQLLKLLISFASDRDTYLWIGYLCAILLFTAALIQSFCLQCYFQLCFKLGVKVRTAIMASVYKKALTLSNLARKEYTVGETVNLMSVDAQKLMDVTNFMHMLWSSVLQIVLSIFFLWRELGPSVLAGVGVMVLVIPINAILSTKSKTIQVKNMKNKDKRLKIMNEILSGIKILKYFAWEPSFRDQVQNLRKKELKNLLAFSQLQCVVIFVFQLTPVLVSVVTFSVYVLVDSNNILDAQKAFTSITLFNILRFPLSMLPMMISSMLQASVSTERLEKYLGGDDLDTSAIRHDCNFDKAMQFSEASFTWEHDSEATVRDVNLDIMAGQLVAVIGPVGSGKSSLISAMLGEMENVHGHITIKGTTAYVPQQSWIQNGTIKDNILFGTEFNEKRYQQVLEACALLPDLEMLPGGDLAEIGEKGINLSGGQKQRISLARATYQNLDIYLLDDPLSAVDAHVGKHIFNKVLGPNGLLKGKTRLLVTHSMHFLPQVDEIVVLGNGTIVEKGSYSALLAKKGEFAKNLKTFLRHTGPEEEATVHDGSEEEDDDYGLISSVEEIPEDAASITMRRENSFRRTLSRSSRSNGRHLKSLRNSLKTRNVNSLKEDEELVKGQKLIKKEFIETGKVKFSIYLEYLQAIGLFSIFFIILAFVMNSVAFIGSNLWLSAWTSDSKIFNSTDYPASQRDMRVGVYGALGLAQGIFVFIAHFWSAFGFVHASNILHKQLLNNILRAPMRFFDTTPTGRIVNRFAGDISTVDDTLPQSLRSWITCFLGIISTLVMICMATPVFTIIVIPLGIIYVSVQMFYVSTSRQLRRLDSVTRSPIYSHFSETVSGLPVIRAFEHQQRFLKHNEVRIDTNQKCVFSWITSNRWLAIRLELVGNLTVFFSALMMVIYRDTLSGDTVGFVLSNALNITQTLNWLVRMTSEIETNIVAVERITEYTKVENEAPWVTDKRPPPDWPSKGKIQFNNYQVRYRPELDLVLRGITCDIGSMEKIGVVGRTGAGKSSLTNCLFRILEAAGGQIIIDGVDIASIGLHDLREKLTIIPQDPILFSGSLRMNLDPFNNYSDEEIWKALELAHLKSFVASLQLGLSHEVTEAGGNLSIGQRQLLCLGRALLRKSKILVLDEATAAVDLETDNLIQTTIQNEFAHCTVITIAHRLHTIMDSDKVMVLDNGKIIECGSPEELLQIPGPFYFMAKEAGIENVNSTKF

For the compound `CC(C)c1c(C(=O)Nc2ccccc2)c(-c2ccccc2)c(-c2ccc(F)cc2)n1CC[C@@H](O)C[C@@H](O)CC(=O)O` [ATORVASTATIN], the IC50 entry in series [1] (mdck) and in series [2] (mdck) was “is not an inhibitor [IC50=-(>100uM)]” each time.
`CC(C)c1c(C(=O)Nc2ccccc2)c(-c2ccccc2)c(-c2ccc(F)cc2)n1CC[C@@H]1C[C@@H](O)CC(=O)O1` [ATORVASTATIN LACTONE]: the IC50 in series [1] (read-out: IC50) was 15 µM; in series [2] (read-out: IC50), 14 µM; in series [3] (read-out: IC50) it was 2.6 µM.
Take `CC[C@]1(O)C[C@@H]2CN(CCc3c([nH]c4ccccc34)[C@@](C(=O)OC)(c3cc4c(cc3OC)N(C)[C@H]3[C@@](O)(C(=O)OC)[C@H](OC(C)=O)[C@]5(CC)C=CCN6CC[C@]43[C@@H]65)C2)C1` [VINBLASTINE]: the IC50 in series [1] (read-out: IC50) was 21 µM.
As to `CCC(C)(C)C(=O)O[C@H]1C[C@@H](C)C=C2C=C[C@H](C)[C@H](CC[C@@H](O)C[C@@H](O)CC(=O)O)[C@H]21` [TENIVASTATIN], the values for the IC50 result in series [1] (mdck), in series [2] (mdck) and in series [3] (read-out: IC50) were “is not an inhibitor [IC50=-(>100uM)]”, “is not an inhibitor [IC50=-(>100uM)]” and 3.6 µM, respectively.
For `CC[C@H](C)C(=O)O[C@H]1C[C@@H](C)C=C2C=C[C@H](C)[C@H](CC[C@@H](O)C[C@@H](O)CC(=O)O)[C@H]21` [LOVASTATIN ACID], the IC50 result in series [1] (mdck) is “is not an inhibitor [IC50=-(>100uM)]”; in series [2] (mdck) it was “is not an inhibitor [IC50=-(>100uM)]”; in series [3] (read-out: IC50) it was 4 µM.
`CC[C@H](C)C(=O)O[C@H]1C[C@H](O)C=C2C=C[C@H](C)[C@H](CC[C@@H](O)C[C@@H](O)CC(=O)O)[C@H]21` [PRAVASTATIN]: the IC50 entry in series [1] (mdck), in series [2] (mdck) and in series [3] (hek293) was “is not an inhibitor [IC50=-(>100uM)]” each time.
On to `CC[C@H](C)C(=O)O[C@H]1C[C@@H](C)C=C2C=C[C@H](C)[C@H](CC[C@@H]3C[C@@H](O)CC(=O)O3)[C@H]21` [LOVASTATIN], for which the IC50 result was “is not an inhibitor [IC50=-(>33uM)]” in series [1] (mdck) and 28 µM in series [3] (read-out: IC50).
Regarding `CO[C@H]1/C=C/O[C@@]2(C)Oc3c(C)c(O)c4c(O)c(cc(O)c4c3C2=O)NC(=O)/C(C)=C\C=C\[C@H](C)[C@H](O)[C@@H](C)[C@@H](O)[C@@H](C)[C@H](OC(C)=O)[C@@H]1C` [RIFAMYCIN], in series [3] (read-out: IC50), the IC50 amounted to 0.23 µM.

What is called IC50 is the concentration at which inhibition is half-maximal.
